Reference: patent US20110212972A1, “Compositions and Methods for Treating Female Sexual Dysfunction” (Pfizer Inc, priority 2000, published 2011)

Key:
MCF-7 cells = assay: Inhibition of in vitro human breast tumor cell growth, ER-positive MCF-7; type: cell-based; details: MCF-7 (ER-positive), 6 days incubation, direct cell counts
Method: (§1) The in vitro antiproliferative effects of (−)-cis-6-phenyl-5-[4-(2-pyrrolidin-1-yl-ethoxy)-phenyl]-5,6,7,8-tetrahydro-naphthalene-2-ol (PPTN) were tested using two types of human breast cancer cell lines: first, MCF-7 cells, which contain ER as well as progesterone receptors (PgR), and second, MDA-MB-231 cells, which lack ER and PgR, and enable the determination of an effect that is independent of the ER mechanism. The effect of PPTN on the growth of these different cell lines was determined by incubation of the cells with various compound concentrations for 6 days.
(§2) The antiproliferative effects were then determined by direct cell counts.

MDA-MB-231 cells = assay: Inhibition of in vitro human breast tumor cell growth, ER-negative MDA-MB-231; type: cell-based; details: MDA-MB-231 (ER-negative), 6 days incubation, direct cell counts
Method: as §1, §2

Compound: Oc1ccc2c(c1)CC[C@H](c1ccccc1)[C@@H]2c1ccc(OCCN2CCCC2)cc1 [PPTN, (−)-cis-6-phenyl-5-[4-(2-pyrrolidin-1-yl-ethoxy)-phenyl]-5,6,7,8-tetrahydro-naphthalene-2-ol]
- IC50 for growth inhibition (MCF-7 cells): 3 to 5×10^−11 M
- effect on cell growth (MCF-7 cells): inhibited the growth
- effect on cell proliferation (MDA-MB-231 cells): did not inhibit cell proliferation
